The NIST ThermoML archive (doi:10.1016/j.jct.2015.11.023)

How the values were obtained:
[1] = wn = mass fraction of the nth substance listed; details: for surface tension liquid-gas: Maximal bubble pressure; for mass density: 100 kPa, Liquid, Vibrating tube method
[2] = refractive index (Na D-line) (dimensionless); wn = mass fraction of the nth substance listed; details: 100 kPa, Liquid, Standard Abbe refractometry

CCC[n+]1ccccc1.N#C[N-]C#N [1-propylpyridinium dicyanamide] + O
Details | mass density [kg/m3] | refractive index | surface tension liquid-gas [mN/m]
[1], 333.15 K, w2 = 0.00121 | 1068.17 | – | –
[1], 333.15 K, w2 = 0.00205 | – | – | 56.2
[1], 333.15 K, w2 = 0.00271 | 1067.92 | – | –
[1], 333.15 K, w2 = 0.0035 | – | – | 56.5
[1], 333.15 K, w2 = 0.00412 | 1067.67 | – | –
[1], 333.15 K, w2 = 0.005 | – | – | 56.9
[1], 333.15 K, w2 = 0.00573 | 1067.34 | – | –
[1], 333.15 K, w2 = 0.00649 | – | – | 57.2
[1], 333.15 K, w2 = 0.00724 | 1067.04 | – | –
[1], 333.15 K, w2 = 0.00802 | – | – | 57.6
[1], 338.15 K, w2 = 0.00121 | 1065.15 | – | –
[1], 338.15 K, w2 = 0.00205 | – | – | 55.8
[1], 338.15 K, w2 = 0.00271 | 1064.88 | – | –
[1], 338.15 K, w2 = 0.0035 | – | – | 56.1
[1], 338.15 K, w2 = 0.00412 | 1064.64 | – | –
[1], 338.15 K, w2 = 0.005 | – | – | 56.5
[1], 338.15 K, w2 = 0.00573 | 1064.3 | – | –
[1], 338.15 K, w2 = 0.00649 | – | – | 56.8
[1], 338.15 K, w2 = 0.00724 | 1063.99 | – | –
[1], 338.15 K, w2 = 0.00802 | – | – | 57.1
[2], 303.15 K, w2 = 0.00205 | – | 1.5386 | –
[2], 303.15 K, w2 = 0.00353 | – | 1.5384 | –
[2], 303.15 K, w2 = 0.00496 | – | 1.5381 | –
[2], 303.15 K, w2 = 0.00639 | – | 1.5378 | –
[2], 303.15 K, w2 = 0.0079 | – | 1.5375 | –
[2], 308.15 K, w2 = 0.00205 | – | 1.537 | –
[2], 308.15 K, w2 = 0.00353 | – | 1.5368 | –
[2], 308.15 K, w2 = 0.00496 | – | 1.5365 | –
[2], 308.15 K, w2 = 0.00639 | – | 1.5362 | –
[2], 308.15 K, w2 = 0.0079 | – | 1.5359 | –
[2], 313.15 K, w2 = 0.00205 | – | 1.5352 | –
[2], 313.15 K, w2 = 0.00353 | – | 1.5349 | –
[2], 313.15 K, w2 = 0.00496 | – | 1.5347 | –
[2], 313.15 K, w2 = 0.00639 | – | 1.5344 | –
[2], 313.15 K, w2 = 0.0079 | – | 1.5341 | –
[2], 318.15 K, w2 = 0.00205 | – | 1.5338 | –
[2], 318.15 K, w2 = 0.00353 | – | 1.5335 | –
[2], 318.15 K, w2 = 0.00496 | – | 1.5332 | –
[2], 318.15 K, w2 = 0.00639 | – | 1.5329 | –
[2], 318.15 K, w2 = 0.0079 | – | 1.5327 | –
[2], 323.15 K, w2 = 0.00205 | – | 1.5325 | –
[2], 323.15 K, w2 = 0.00353 | – | 1.5322 | –
[2], 323.15 K, w2 = 0.00496 | – | 1.5319 | –
[2], 323.15 K, w2 = 0.00639 | – | 1.5316 | –
[2], 323.15 K, w2 = 0.0079 | – | 1.5313 | –
[2], 328.15 K, w2 = 0.00205 | – | 1.5308 | –
[2], 328.15 K, w2 = 0.00353 | – | 1.5306 | –
[2], 328.15 K, w2 = 0.00496 | – | 1.5303 | –
[2], 328.15 K, w2 = 0.00639 | – | 1.5301 | –
[2], 328.15 K, w2 = 0.0079 | – | 1.5298 | –
[2], 333.15 K, w2 = 0.00205 | – | 1.529 | –
[2], 333.15 K, w2 = 0.00353 | – | 1.5288 | –
[2], 333.15 K, w2 = 0.00496 | – | 1.5286 | –
[2], 333.15 K, w2 = 0.00639 | – | 1.5283 | –
[2], 333.15 K, w2 = 0.0079 | – | 1.5281 | –
[2], 338.15 K, w2 = 0.00205 | – | 1.5273 | –
[2], 338.15 K, w2 = 0.00353 | – | 1.527 | –
[2], 338.15 K, w2 = 0.00496 | – | 1.5268 | –
[2], 338.15 K, w2 = 0.00639 | – | 1.5265 | –
[2], 338.15 K, w2 = 0.0079 | – | 1.5263 | –
